Assay results: patent US6399543B1, “Low foam N,N′-dialkyltartaramide wetting agents” (Air Products and Chemicals, Inc., priority 2001, dated 2002)

What was measured:
Assay type in all cases: physicochemical
[1] = Equilibrium surface tension (EST), Wilhelmy plate method, saturated aqueous solutions; conditions: for Limiting EST: saturated solution in distilled water, undissolved material filtered off, Wilhelmy plate
Protocol: where R^1 and R^2 are C4 to C8 alkyl groups, and at least one of R^1 and R^2 is a branched C4 to C8 alkyl group. […] The Wilhelmy plate method of measuring surface tension is described in L. Wilhelmy's article in Ann. Phys. 1863, 119, 177, which is incorporated by reference.
(§1) Saturated solutions of the materials of Examples 1-9 in distilled water were prepared. After shaking the solutions for ˜24 hours, the undissolved material was removed via filtration. Equilibrium surface tension (EST) data were obtained using the Wilhelmy plate method. Equilibrium surface tension values between 65-72 dyne/cm are considered to be indicative of a lack of surface activity (i.e., a lack of surfactancy).
The limiting surface tensions represent the lowest surface tensions in water which can be achieved for a given surfactant regardless of the amount of surfactant used and is used to evaluate the effectiveness of a surfactant. Lower surface tensions would allow for the elimination of defects upon application of a formulation onto low energy surfaces.

[2] = Concentration of surfactant in filtered saturated solution in distilled water; conditions: shaken ~24 hours
Protocol: as §1

[3] = Foaming properties of aqueous solutions, procedure based upon ASTM D 1173-53; conditions: filtrate of aqueous mixture of the tartaramide; for Initial Foam: foam height at completion of addition
Protocol: The foaming properties of aqueous solutions of N,N′-di-iso-pentyl L-tartaramide (Ex 1), N,N′-di-2-ethylhexyl L-tartaramide (Ex 5) and two representative nonionic surfactants, a commercial nonylphenol 15 mole ethoxylate surfactant and a commercial C8 alkyl glucoside surfactant, were examined using a procedure based upon ASTM D 1173-53.
In this test, an aqueous mixture of the tartaramides was prepared, any undissolved solids were filtered off, and the filtrate was added from an elevated glass pipette to a glass receiver containing the same filtrate. Regarding the commercial materials, a 0.1 wt % solution of the surfactant was added from an elevated glass pipette to a glass receiver containing the same solution. The foam height was measured at the completion of the addition (“Initial Foam Height”) and the time required for the foam to dissipate at the air-liquid interface (“Time to 0 Foam”) was recorded. This test provides a comparison between the foaming characteristics of various surfactants. In general, in coatings, inks, adhesives, agricultural and electronics cleaning formulations, foam is undesirable because it complicates handling and can lead to coating and print defects, and to inefficient application of agricultural materials.

Compound: CCCCCC(C)NC(=O)C(O)C(O)C(=O)NC(C)CCCCC [Ex 4, N,N′-Di-1-methylhexyl L-tartaramide]
- Limiting EST [1]: 41.5 dyne/cm
- lowering the equilibrium surface tension of water (in words) [1]: particularly effective
- Concentration of Surfactant in Solution [2]: <0.1 wt. %

Compound: CCCCC(CC)CNC(=O)C(O)C(O)C(=O)NCC(CC)CCCC [Ex 5, N,N′-Di-2-ethylhexyl L-tartaramide]
- Limiting EST [1]: 41.4 dyne/cm
- lowering the equilibrium surface tension of water (in words) [1]: particularly effective
- Concentration of Surfactant in Solution [2]: <0.1 wt. %
- Foam after 5 min [3]: 0 cm
- Time to zero foam [3]: ˜3 sec
- Initial Foam [3]: 1.5 cm

Compound: CCCNC(=O)[C@H](O)[C@@H](O)C(=O)NCCC [Ex 6, N,N′-Di-n-propyl L-tartaramide]
- Limiting EST [1]: 67.7 dyne/cm
- Concentration of Surfactant in Solution [2]: <1.0 wt. %

Compound: CC(C)CCCC(C)NC(=O)C(O)C(O)C(=O)NC(C)CCCC(C)C [Ex 3, N,N′-Di-1,5-dimethylhexyl L-tartaramide]
- Limiting EST [1]: 38.0 dyne/cm
- lowering the equilibrium surface tension of water (in words) [1]: particularly effective
- Concentration of Surfactant in Solution [2]: <0.1 wt. %

Compound: CCCCNC(=O)[C@H](O)[C@@H](O)C(=O)NCCCC [Ex 7, N,N′-Di-n-butyl L-tartaramide]
- Limiting EST [1]: 65.0 dyne/cm
- Concentration of Surfactant in Solution [2]: <1.0 wt. %

Compound: CCCCCCC(C)NC(=O)C(O)C(O)C(=O)NC(C)CCCCCC [Ex 2, N,N′-Di-1-methylheptyl L-tartaramide]
- Limiting EST [1]: 39.5 dyne/cm
- lowering the equilibrium surface tension of water (in words) [1]: particularly effective
- Concentration of Surfactant in Solution [2]: <0.1 wt. %

Compound: CCCCCCNC(=O)[C@H](O)[C@@H](O)C(=O)NCCCCCC [Ex 8, N,N′-Di-n-hexyl L-tartaramide]
- Limiting EST [1]: 67.8 dyne/cm
- Concentration of Surfactant in Solution [2]: <0.1 wt. %

Compound: CC(C)CCNC(=O)[C@H](O)[C@@H](O)C(=O)NCCC(C)C [Ex 1, N,N′-Di-iso-pentyl L-tartaramide]
- Limiting EST [1]: 48.0 dyne/cm
- Concentration of Surfactant in Solution [2]: <1.5 wt. %
- Foam after 5 min [3]: 0 cm
- Time to zero foam [3]: ≦5 sec
- Initial Foam [3]: 0.5 cm

Compound: O=C(NC1CCCCC1)[C@H](O)[C@@H](O)C(=O)NC1CCCCC1 [Ex 9, N,N′-Di-cyclohexyl L-tartaramide]
- Limiting EST [1]: 67.9 dyne/cm
- Concentration of Surfactant in Solution [2]: <0.1 wt. %
